Values after ≈ are worked out from the molar mass of the structure shown.
Key:
Format in all cases: functional
[1] = test system: Escherichia coli; assay: Antibacterial activity against Escherichia coli ATCC 25922 assessed as inhibition of bacterial growth incubated for 24 hrs
[2] = test system: Pseudomonas aeruginosa; assay: Antibacterial activity against Pseudomonas aeruginosa clinical isolate assessed as inhibition of bacterial growth incubated for 24 hrs
[3] = test system: Escherichia coli; assay: Antibacterial activity against Escherichia coli clinical isolate assessed as inhibition of bacterial growth incubated for 24 hrs
[4] = test system: Acinetobacter baumannii; assay: Antibacterial activity against Acinetobacter baumannii clinical isolate assessed as inhibition of bacterial growth incubated for 24 hrs
[5] = test system: Staphylococcus aureus; assay: Antibacterial activity against Staphylococcus aureus clinical isolate assessed as inhibition of bacterial growth incubated for 24 hrs
[6] = test system: Staphylococcus aureus; assay: Antibacterial activity against methicillin resistant Staphylococcus aureus clinical isolate assessed as inhibition of bacterial growth incubated for 24 hrs
[7] = test system: Staphylococcus aureus; assay: Antibacterial activity against Staphylococcus aureus ATCC 25923 assessed as inhibition of bacterial growth incubated for 24 hrs
[8] = test system: Staphylococcus aureus; assay: Antibacterial activity against Staphylococcus aureus ATCC 29213 assessed as inhibition of bacterial growth incubated for 24 hrs
[9] = test system: Klebsiella pneumoniae; assay: Antibacterial activity against Klebsiella pneumoniae clinical isolate assessed as inhibition of bacterial growth incubated for 24 hrs
[10] = test system: Enterococcus faecalis; assay: Antibacterial activity against Enterococcus faecalis clinical isolate assessed as inhibition of bacterial growth incubated for 24 hrs
[11] = test system: Pseudomonas aeruginosa; assay: Antibacterial activity against Pseudomonas aeruginosa ATCC 27853 assessed as inhibition of bacterial growth incubated for 24 hrs

Row | SMILES | MIC [1] [µg/mL] | MIC [2] [µg/mL] | MIC [3] [µg/mL] | MIC [4] [µg/mL] | MIC [5] [µg/mL] | MIC [6] [µg/mL] | MIC [7] [µg/mL] | MIC [8] [µg/mL] | MIC [9] [µg/mL] | MIC [10] [µg/mL] | MIC [11] [µg/mL]
1 | Cc1ccc(Cn2cc(C(=O)O)c(=O)c3cc(F)c(CC#N)cc32)cc1 | 0.25 (≈ 0.714 µM) | 0.5 (≈ 1.43 µM) | 256 (≈ 731 µM) | 256 (≈ 731 µM) | 256 (≈ 731 µM) | 8 (≈ 22.8 µM) | 0.25 (≈ 0.714 µM) | 256 (≈ 731 µM) | 256 (≈ 731 µM) | 4 (≈ 11.4 µM) | 4 (≈ 11.4 µM)
2 | N#CCc1cc2c(cc1F)c(=O)c(C(=O)O)cn2Cc1cc(F)ccc1F | 256 (≈ 688 µM) | 256 (≈ 688 µM) | 256 (≈ 688 µM) | 64 (≈ 172 µM) | 4 (≈ 10.7 µM) | 256 (≈ 688 µM) | 256 (≈ 688 µM) | 256 (≈ 688 µM) | 16 (≈ 43 µM) | 256 (≈ 688 µM) | 256 (≈ 688 µM)
3 | CCn1cc(C(=O)O)c(=O)c2cc(F)c(CC(=O)O)cc21 | 8 (≈ 27.3 µM) | 8 (≈ 27.3 µM) | 8 (≈ 27.3 µM) | 16 (≈ 54.6 µM) | 64 (≈ 218 µM) | 64 (≈ 218 µM) | 16 (≈ 54.6 µM) | 32 (≈ 109 µM) | 1 (≈ 3.41 µM) | 0.5 (≈ 1.71 µM) | 2 (≈ 6.82 µM)
4 | N#CCc1cc2c(cc1F)c(=O)c(C(=O)O)cn2Cc1cccc(Cl)c1 | 0.5 (≈ 1.35 µM) | 0.25 (≈ 0.674 µM) | 2 (≈ 5.39 µM) | 16 (≈ 43.2 µM) | 256 (≈ 690 µM) | 256 (≈ 690 µM) | 0.5 (≈ 1.35 µM) | 0.5 (≈ 1.35 µM) | 1 (≈ 2.7 µM) | 256 (≈ 690 µM) | 0.5 (≈ 1.35 µM)
5 | N#CCc1cc2c(cc1F)c(=O)c(C(=O)O)cn2Cc1ccc(Cl)c(Cl)c1 | 2 (≈ 4.94 µM) | 0.5 (≈ 1.23 µM) | 8 (≈ 19.7 µM) | 0.5 (≈ 1.23 µM) | 256 (≈ 632 µM) | 256 (≈ 632 µM) | 0.25 (≈ 0.617 µM) | 2 (≈ 4.94 µM) | 16 (≈ 39.5 µM) | 256 (≈ 632 µM) | 2 (≈ 4.94 µM)
6 | C=CCn1cc(C(=O)O)c(=O)c2cc(F)c(CC#N)cc21 | 0.5 (≈ 1.75 µM) | 0.5 (≈ 1.75 µM) | 256 (≈ 894 µM) | 8 (≈ 27.9 µM) | 2 (≈ 6.99 µM) | 0.5 (≈ 1.75 µM) | 0.5 (≈ 1.75 µM) | 4 (≈ 14 µM) | 1 (≈ 3.49 µM) | 16 (≈ 55.9 µM) | 4 (≈ 14 µM)
7 | N#CCc1cc2c(cc1F)c(=O)c(C(=O)O)cn2Cc1ccc(Cl)cc1 | 256 (≈ 690 µM) | 0.5 (≈ 1.35 µM) | 256 (≈ 690 µM) | 16 (≈ 43.2 µM) | 256 (≈ 690 µM) | 256 (≈ 690 µM) | 0.5 (≈ 1.35 µM) | 4 (≈ 10.8 µM) | 256 (≈ 690 µM) | 256 (≈ 690 µM) | 256 (≈ 690 µM)
8 | O=C(O)Cc1cc2c(cc1F)c(=O)c(C(=O)O)cn2Cc1ccccc1Cl | 8 (≈ 20.5 µM) | 64 (≈ 164 µM) | 32 (≈ 82.1 µM) | 32 (≈ 82.1 µM) | 32 (≈ 82.1 µM) | 32 (≈ 82.1 µM) | 16 (≈ 41.1 µM) | 8 (≈ 20.5 µM) | 0.5 (≈ 1.28 µM) | 32 (≈ 82.1 µM) | 4 (≈ 10.3 µM)
9 | O=C(O)Cc1cc2c(cc1F)c(=O)c(C(=O)O)cn2Cc1ccccc1 | 8 (≈ 22.5 µM) | 32 (≈ 90.1 µM) | 64 (≈ 180 µM) | 64 (≈ 180 µM) | 32 (≈ 90.1 µM) | 16 (≈ 45 µM) | 16 (≈ 45 µM) | 64 (≈ 180 µM) | 4 (≈ 11.3 µM) | 32 (≈ 90.1 µM) | 8 (≈ 22.5 µM)
10 | N#CCc1cc2c(cc1F)c(=O)c(C(=O)O)cn2CC1CC1 | 0.25 (≈ 0.833 µM) | 0.25 (≈ 0.833 µM) | 1 (≈ 3.33 µM) | 0.25 (≈ 0.833 µM) | 256 (≈ 853 µM) | 0.5 (≈ 1.67 µM) | 0.25 (≈ 0.833 µM) | 1 (≈ 3.33 µM) | 2 (≈ 6.66 µM) | 64 (≈ 213 µM) | 1 (≈ 3.33 µM)
11 | N#CCc1cc2c(cc1F)c(=O)c(C(=O)O)cn2CC1CCCCC1 | 256 (≈ 748 µM) | 16 (≈ 46.7 µM) | 256 (≈ 748 µM) | 256 (≈ 748 µM) | 256 (≈ 748 µM) | 256 (≈ 748 µM) | 256 (≈ 748 µM) | 256 (≈ 748 µM) | 256 (≈ 748 µM) | 256 (≈ 748 µM) | 256 (≈ 748 µM)
12 | N#CCc1cc2c(cc1F)c(=O)c(C(=O)O)cn2CC(=O)N1CCCCC1 | 4 (≈ 10.8 µM) | 1 (≈ 2.69 µM) | 16 (≈ 43.1 µM) | 64 (≈ 172 µM) | 128 (≈ 345 µM) | 4 (≈ 10.8 µM) | 16 (≈ 43.1 µM) | 4 (≈ 10.8 µM) | 16 (≈ 43.1 µM) | 64 (≈ 172 µM) | 4 (≈ 10.8 µM)
13 | CC(C)=CCn1cc(C(=O)O)c(=O)c2cc(F)c(CC#N)cc21 | 0.5 (≈ 1.59 µM) | 0.5 (≈ 1.59 µM) | 256 (≈ 814 µM) | 256 (≈ 814 µM) | 256 (≈ 814 µM) | 1 (≈ 3.18 µM) | 0.25 (≈ 0.795 µM) | 16 (≈ 50.9 µM) | 0.5 (≈ 1.59 µM) | 128 (≈ 407 µM) | 2 (≈ 6.36 µM)
14 | CCCCCn1cc(C(=O)O)c(=O)c2cc(F)c(CC#N)cc21 | 0.25 (≈ 0.79 µM) | 1 (≈ 3.16 µM) | 16 (≈ 50.6 µM) | 256 (≈ 809 µM) | 256 (≈ 809 µM) | 0.5 (≈ 1.58 µM) | 0.25 (≈ 0.79 µM) | 8 (≈ 25.3 µM) | 1 (≈ 3.16 µM) | 256 (≈ 809 µM) | 4 (≈ 12.6 µM)

From ChEMBL document CHEMBL5506059, “Cyanomethylquinolones as a New Class of Potential Multitargeting Broad-Spectrum Antibacterial Agents” (J Med Chem, 2024)
